Like-named read-outs stand apart in the source and are kept apart here.

The subject of the experiment is PANC-1 cells. As to the kind of experiment: cell viability assay in PANC-1 cells (compound alone, + 100 ng/ml TNFa, + 300 ng/ml TRAIL). The class given is cell-based. The conditions noted are these: Tables 6-10.
Setting [1] is: Homo sapiens, PANC-1, compound alone, read-out: IC50 (μM) in cell viability assay in PANC-1 cells: Compound alone.
[2] abbreviates: with 100 ng/ml TNFa, read-out: IC50 (μM) in cell viability assay in PANC-1 cells: Compound + 100 ng/ml TNFa.
Where [3] appears, read: with 300 ng/ml TRAIL, read-out: IC50 (μM) in cell viability assay in PANC-1 cells: Compound + 300 ng/ml TRAIL.

`CN[C@@H](C)C(=O)N[C@@H](CCCCCC[C@H](NC(=O)[C@H](C)NC)C(=O)N1CC[C@H]1C(=O)N[C@@H]1CCCc2ccccc21)C(=O)N1CC[C@H]1C(=O)N[C@@H]1CCCc2ccccc21` [Compound 102]: the IC50 was over 1 µM under setting [1], 0.064 µM under setting [2] and 0.069 µM under setting [3].

`CN[C@@H](C)C(=O)N[C@@H](CCCCCC[C@H](NC(=O)[C@H](C)NC)C(=O)N1C[C@@H](F)C[C@H]1C(=O)N[C@@H]1CCCc2ccccc21)C(=O)N1C[C@H](F)C[C@H]1C(=O)N[C@@H]1CCCc2ccccc21` [Compound 106]: the IC50 runs as follows: under setting [1], over 1 µM; under setting [2], 0.006 µM; under setting [3], 0.006 µM.

With `CN[C@@H](C)C(=O)N[C@@H](CCCCCC[C@H](NC(=O)[C@H](C)NC)C(=O)N1CC(F)(F)C[C@H]1C(=O)N[C@@H]1CCCc2ccccc21)C(=O)N1CC(F)(F)C[C@H]1C(=O)N[C@@H]1CCCc2ccccc21` [Compound 109], the IC50 under setting [1] is over 1 µM, the IC50 under setting [2] turned out to be 0.004 µM and the IC50 under setting [3] is 0.003 µM.

`CN[C@@H](C)C(=O)N[C@H](C(=O)N1CCC[C@H]1C(=O)N[C@H](C)c1ccccc1)[C@H](C)NC(=O)CCCCC(=O)N[C@@H](C)[C@H](NC(=O)[C@H](C)NC)C(=O)N1CCC[C@H]1C(=O)N[C@H](C)c1ccccc1` [Compound 113]: the IC50 under setting [1] is over 1 µM, the IC50 under setting [2] worked out at 0.208 µM and the IC50 under setting [3] was 0.203 µM.

As to `CN[C@@H](C)C(=O)N[C@H](C(=O)N1CCC[C@H]1C(=O)N[C@H](C)c1ccccc1)[C@H](C)NC(=O)c1ccc(C(=O)N[C@@H](C)[C@H](NC(=O)[C@H](C)NC)C(=O)N2CCC[C@H]2C(=O)N[C@H](C)c2ccccc2)cc1` [Compound 114], the IC50 is over 1 µM under setting [1], 0.199 µM under setting [2] and 0.184 µM under setting [3].

Regarding `CN[C@@H](C)C(=O)N[C@H](C(=O)N1CCC[C@H]1C(=O)N[C@H](C)c1ccccc1)[C@H](C)n1cc(CCCc2cn([C@@H](C)[C@H](NC(=O)[C@H](C)NC)C(=O)N3CCC[C@H]3C(=O)N[C@H](C)c3ccccc3)nn2)nn1` [Compound 115], the IC50 runs as follows: under setting [1], over 1 µM; under setting [2], 0.057 µM; under setting [3], 0.063 µM.

For `CN[C@@H](C)C(=O)N[C@H](C(=O)N1CCC[C@H]1Cn1nnnc1Sc1ccccc1)[C@@H](C)OCC#Cc1cccc(C#CCO[C@@H](C)[C@@H](NC(=O)[C@@H](C)NC)C(=O)N2CCC[C@@H]2Cn2nnnc2Sc2ccccc2)c1` [Compound 116], the IC50 runs as follows: under setting [1], over 1 µM; under setting [2], 0.0046 µM; under setting [3], 0.0059 µM.

Turning to `CN[C@@H](C)C(=O)N[C@@H](CCC(=O)Nc1ccc2c(c1)Cc1cc(NC(=O)CC[C@H](NC(=O)[C@H](C)NC)C(=O)N3CCC[C@H]3C(=O)N[C@@H]3CCCc4ccccc43)ccc1-2)C(=O)N1CCC[C@H]1C(=O)N[C@@H]1CCCc2ccccc21` [Compound 117], the IC50 is over 1 µM under setting [1], 0.02 µM under setting [2] and 0.025 µM under setting [3].

With `CN[C@@H](C)C(=O)N[C@H](C(=O)N1CCC[C@H]1C(=O)N[C@H]1c2ccccc2C[C@@H]1OC(=O)CCCC(=O)O[C@H]1Cc2ccccc2[C@@H]1NC(=O)[C@@H]1CCCN1C(=O)[C@@H](NC(=O)[C@H](C)NC)C(C)(C)C)C(C)(C)C` [Compound 118], the IC50 by setting is: under setting [1], over 1 µM; under setting [2], 0.0007 µM; under setting [3], 0.0008 µM.

Turning to `CN[C@@H](C)C(=O)N[C@H](C(=O)N1CCC[C@H]1C(=O)N[C@H]1c2ccccc2C[C@H]1OCC#CC#CCO[C@@H]1Cc2ccccc2[C@@H]1NC(=O)[C@@H]1CCCN1C(=O)[C@@H](NC(=O)[C@H](C)NC)C(C)(C)C)C(C)(C)C` [Compound 119], the IC50 is over 1 µM under setting [1], 0.0014 µM under setting [2] and 0.0018 µM under setting [3].

Take `CN[C@@H](C)C(=O)N[C@H](C(=O)N1CCC[C@H]1C(=O)N[C@H]1c2ccccc2C[C@H]1OCCCCCCO[C@@H]1Cc2ccccc2[C@@H]1NC(=O)[C@@H]1CCCN1C(=O)[C@@H](NC(=O)[C@H](C)NC)C(C)(C)C)C(C)(C)C` [Compound 120]: the IC50 under setting [1] is over 1 µM.

For `CN[C@@H](C)C(=O)N[C@H](C(=O)N1CCC[C@H]1C(=O)N[C@H]1c2ccccc2C[C@@H]1OCC#CC#CCO[C@H]1Cc2ccccc2[C@@H]1NC(=O)[C@@H]1CCCN1C(=O)[C@@H](NC(=O)[C@H](C)NC)C(C)(C)C)C(C)(C)C` [Compound 121], the IC50 by setting is: under setting [1], over 1 µM; under setting [2], 0.0013 µM; under setting [3], 0.0015 µM.

Regarding `CN[C@@H](C)C(=O)N[C@H](C(=O)N1CCC[C@H]1C(=O)N[C@H]1c2ccccc2C[C@@H]1OCCCCCCO[C@H]1Cc2ccccc2[C@@H]1NC(=O)[C@@H]1CCCN1C(=O)[C@@H](NC(=O)[C@H](C)NC)C(C)(C)C)C(C)(C)C` [Compound 122], the IC50 by setting is: under setting [1], over 1 µM; under setting [2], 0.0015 µM; under setting [3], 0.0014 µM.

On to `CN[C@@H](C)C(=O)N[C@H](C(=O)N1CCC[C@H]1C(=O)N[C@H]1c2ccccc2C[C@@H]1NC(=O)CCCCC(=O)N[C@H]1Cc2ccccc2[C@@H]1NC(=O)[C@@H]1CCCN1C(=O)[C@@H](NC(=O)[C@H](C)NC)C(C)(C)C)C(C)(C)C` [Compound 123], for which the IC50 is, setting by setting: under setting [1], over 1 µM; under setting [2], 0.069 µM; under setting [3], 0.067 µM.

With `CN[C@@H](C)C(=O)N[C@H](C(=O)N1CCC[C@H]1C(=O)N[C@H]1c2ccccc2C[C@@H]1NC(=O)c1ccc(C(=O)N[C@H]2Cc3ccccc3[C@@H]2NC(=O)[C@@H]2CCCN2C(=O)[C@@H](NC(=O)[C@H](C)NC)C(C)(C)C)cc1)C(C)(C)C` [Compound 124], the IC50 is, setting by setting: under setting [1], over 1 µM; under setting [2], 0.061 µM; under setting [3], 0.066 µM.

As for `CN[C@@H](C)C(=O)N[C@H](C(=O)N1C[C@@H](NC(=O)c2cc(C(=O)NCCN)cc(C(=O)N[C@H]3C[C@@H](C(=O)N[C@@H]4CCCc5ccccc54)N(C(=O)[C@@H](NC(=O)[C@H](C)NC)C(C)(C)C)C3)c2)C[C@H]1C(=O)N[C@@H]1CCCc2ccccc21)C(C)(C)C` [Compound 126], the IC50 by setting is: under setting [1], over 1 µM; under setting [2], 0.023 µM; under setting [3], 0.028 µM.

Consider `CN[C@@H](C)C(=O)N[C@H](C(=O)N1C[C@@H](NC(=O)c2cc(C(=O)O)cc(C(=O)N[C@H]3C[C@@H](C(=O)N[C@@H]4CCCc5ccccc54)N(C(=O)[C@@H](NC(=O)[C@H](C)NC)C(C)(C)C)C3)c2)C[C@H]1C(=O)N[C@@H]1CCCc2ccccc21)C(C)(C)C` [Compound 127], for which the IC50 under setting [1] is over 1 µM, the IC50 under setting [2] turned out to be 0.032 µM and the IC50 under setting [3] was determined as 0.028 µM.

For `CCCC[C@@H](C)NC(=O)c1cc(C(=O)N[C@H]2C[C@@H](C(=O)N[C@@H]3CCCc4ccccc43)N(C(=O)[C@@H](NC(=O)[C@H](C)NC)C(C)(C)C)C2)cc(C(=O)N[C@H]2C[C@@H](C(=O)N[C@@H]3CCCc4ccccc43)N(C(=O)[C@@H](NC(=O)[C@H](C)NC)C(C)(C)C)C2)c1` [Compound 128], the IC50 is, setting by setting: under setting [1], over 1 µM; under setting [2], 0.01 µM; under setting [3], 0.014 µM.

Turning to `CCCC[C@@H](C)NC(=O)c1cc(C(=O)N[C@H]2C[C@@H](C(=O)N[C@@H]3CCCc4ccccc43)N(C(=O)[C@@H](NC(=O)[C@H](C)NC)C(C)(C)C)C2)cc(C(=O)N[C@H]2C[C@@H](C(=O)N[C@@H]3CCCc4ccccc43)N(C(=O)[C@@H](NC(=O)[C@H](C)NC)C(C)(C)C)C2)c1` [Compound 129], the IC50 was over 1 µM (compound alone, read-out: IC50 (μM) in cell viability assay in PANC-1 cells: Compound alone); 0.006 µM under setting [2]; 0.004 µM under setting [3].

As for `CCCC[C@H](C)NC(=O)c1cc(C(=O)N[C@H]2C[C@@H](C(=O)N[C@@H]3CCCc4ccccc43)N(C(=O)[C@@H](NC(=O)[C@H](C)NC)C(C)(C)C)C2)cc(C(=O)N[C@H]2C[C@@H](C(=O)N[C@@H]3CCCc4ccccc43)N(C(=O)[C@@H](NC(=O)[C@H](C)NC)C(C)(C)C)C2)c1` [Compound 130], the IC50 runs as follows: under setting [1], over 1 µM; under setting [2], 0.018 µM; under setting [3], 0.019 µM.

As for `CN[C@@H](C)C(=O)N[C@H](C(=O)N[C@@H](CCNC(=O)CC[C@H](NC(=O)[C@@H](NC(=O)[C@H](C)NC)C(C)(C)C)C(=O)N[C@@H]1CCCc2ccccc21)C(=O)N[C@H](C)C(C)C)C(C)C` [Compound 166], the IC50 was over 1 µM under setting [1], 0.994 µM under setting [2] and over 1 µM under setting [3].

`CN[C@@H](C)C(=O)N[C@H](C(=O)N1C[C@@H](NC(=O)CC[C@@H](NC(=O)[C@H](NC(=O)[C@@H](C)NC)C(C)(C)C)C(=O)N[C@H]2CCCc3ccccc32)C[C@H]1C(=O)N[C@H](C)c1ccccc1)C(C)C` [Compound 167]: the IC50 reads like this: under setting [1], over 1 µM; under setting [2], 0.06 µM; under setting [3], 0.1 µM.

For `CN[C@@H](C)C(=O)N[C@H](C(=O)N1C[C@@H](NC(=O)CC[C@@H](NC(=O)[C@H](NC(=O)[C@@H](C)NC)C(C)C)C(=O)N[C@@H](C)C(C)C)C[C@H]1C(=O)N[C@H](C)c1ccccc1)C(C)C` [Compound 168], the IC50 by setting is: under setting [1], over 1 µM; under setting [2], over 1 µM; under setting [3], over 1 µM.

As for `CN[C@@H](C)C(=O)N[C@H](C(=O)N[C@@H](CCNC(=O)c1cccc(C(=O)N[C@H]2C[C@@H](C(=O)N[C@@H]3CCCc4ccccc43)N(C(=O)[C@@H](NC(=O)[C@H](C)NC)C(C)(C)C)C2)c1)C(=O)N[C@@H]1CCCc2ccccc21)C(C)(C)C` [Compound 169], the IC50 runs as follows: under setting [1], over 1 µM; under setting [2], 0.01 µM; under setting [3], 0.028 µM.

Turning to `CN[C@@H](C)C(=O)N[C@H](C(=O)N[C@@H](CCNC(=O)c1cccc(C(=O)N[C@H]2C[C@@H](C(=O)N[C@@H]3CCCc4ccccc43)N(C(=O)[C@@H](NC(=O)[C@H](C)NC)C(C)(C)C)C2)c1)C(=O)N[C@@H]1CCCc2ccccc21)C(C)C` [Compound 170], the IC50 runs as follows: under setting [1], over 1 µM; under setting [2], 0.015 µM; under setting [3], 0.015 µM.

Source of the values: patent US20130344026A1, “Dimeric Smac Mimetics” (priority 2009, published 2013).
